Results published in patent US8133472B2, “Cyclopeptides containing RGD mimetics as imaging markers for integrins” (Siemens Medical Solutions USA, Inc., priority 2008, dated 2012).
“And” between values parts separate entries of the source, which are not always exact repeats. Identical values can stand only once. Blank lines part the entries; values can stand above or below the compound they belong to. Non-standard residues stand in square brackets, D forms with d. Residues, ends and D or L forms follow the SMILES beside them. *: point of attachment. X1 = O=C(Cn1cc(CCCF)nn1)NCC1OC(C(=O)*)C(O)C(O)C1O

Legend:
[1] = molecular target: T1, integrin αvβ3 (Homo sapiens, UniProt P05106+P06756); test: Binding affinity to integrin αvβ3, summary statements (FIG. 1-4); settings: general statement
Procedure: Compound 20 was immobilized onto a CM5 chip (Supplier: Biacore. CM5 is a SPR chip with a carboxymethylated dextran covalently attached to a gold surface) via amine coupling. Intergrin αvβ3 samples at 50 nM concentration, premixed with a wide range of concentrations of RGD test compound (0˜2000 nM), were flowed through the CM5 chip at 14° C.
The interactions between the flowing integrin αvβ3 sample and the surface of the chip were recorded by Biacore sensorgram signals. Flow cell #1 served as blank control and the flow cell #2 were coated with compound 20. After subtraction the blank signal of flow cell #1 from the signal of flow cell #2, the resulting sensorgram signals from each cycle were converted into percentage values and the Kd and IC50 values for each cyclopeptides were calculated.
Inhibitory effects of cyclic peptides were quantified by measuring their effects on the interactions between immobilized integrin and biotinylated soluble ligand. Integrin αvβ3 was immobilized on a 96 well plate. […] The wells were incubated with alkaline-phsphatase substrate and the intensities of yellow color product were measured in plate reader. […]
Integrin αvβ3 expressing U87MG cells were incubated with a series of concentration of cyclic peptides (0.01, 0.1, 1, 10, 100, 1000, 10000 nM) in the presence of 10 nM of green fluorescence labeled compound 21 for 2 hrs. […]

[2] = molecular target: T2, Integrin αvβ3 expressing U87MG cells (Homo sapiens, UniProt P05106+P06756); test: Cell-based integrin receptor-binding competition assay against fluorescent compound 21; settings: 10 nM compound 21, 2 hrs, FIG. 4
T2 construct: Integrin αvβ3 expressing U87MG cells; endogenous in cells; host or cells: U87MG
Procedure: After incubation, cells were washed three times to eliminate unbound cyclic peptides. Fluorescence readings (RLU) were then taken (excitation at 491 nm, emission at 518 nm, cutoff 515 nm). Fluorescence signals of wells without cyclic peptides were set as 100% and used as control. […] All treatments were carried out in triplicates.

[3] = FIG. 5
Procedure: Table printed on a drawing sheet, FIG. 5
The patent's description of the figure: FIG. 5 is a microPET imaging of Compound 19 in a U87MG xenograft mouse model at 1 hour post-injection.
First reader's note: Tissue uptake from the microPET image beside the table; rows are the right-side (RS) tumor, the left-side (LS) tumor and muscle.

[4] = system: U87MG human glioblastoma tumor xenograft; assay type: in vivo, mouse
Procedure: PET Studies: In vivo microPET imaging of a tumor-bearing mouse is performed on an anesthetized mouse bearing tumor xenograft of U87MG human glioblastoma after administration of the test imaging cyclic peptides. Animals are induced with 5% isoflurane/oxygen until anesthetized and then maintained on 2-2.5% isoflurane/oxygen inhalation for the duration of each PET scanning procedure (up to 2 hours). Anesthetized animals are placed on a heated pad for the duration of each PET scan. Animals are scanned at 1 hour post-injection for 30 min.

[5] = system: tumor; settings: in vivo, cited from earlier work
[6] = cited from earlier work
[7] = system: A431 human squamous cell carcinoma model; settings: integrin negative cell line A431; cited from earlier work
[8] = system: M21 melanoma xenograft; settings: integrin-positive M21 melanoma xenograft; cited from earlier work
[9] = molecular target: T1, integrin αvβ3; settings: background statement; cited from earlier work
[10] = comparison of cyclic peptides 18 and 23
[11] = comparison among cyclic peptides 4, 1 and RGDfK

Compound: C[C@@H]1NC(=O)[C@H](CCCNC(=N)N)NC(=O)[C@H](CCCCNC(=O)C2OC(CNC(=O)Cn3cc(CCCF)nn3)C(O)C(O)C2O)NC(=O)[C@@H](Cc2ccccc2)NC(=O)[C@H](CC(=O)O)NC1=O (some centres unmarked) [Compound 18] (cyclo(AD[dF]K(X1)R))
binding affinity to integrin αvβ3 [1]: high binding affinity | potency (competition of binding) [2, 10]: very similar in potency

binding affinity to integrin αvβ3 [1]: high binding affinity | potency (competition of binding) [2, 11]: very similar in potency
Compound: C[C@@H]1NC(=O)[C@H](CCCNC(=N)N)NC(=O)[C@H](CCCCN)NC(=O)[C@@H](Cc2ccccc2)NC(=O)[C@H](CC(=O)O)NC1=O [Compound 4] (cyclo(RAD[dF]K))

Compound: C[C@@H]1NC(=O)[C@H](CCCNC(=N)N)NC(=O)[C@H](CCCCNC(=O)C2O[C@H](CNC(=O)Cn3cc(CCC[18F])nn3)[C@H](O)C(O)[C@@H]2O)NC(=O)[C@@H](Cc2ccccc2)NC(=O)[C@H](CC(=O)O)NC1=O (some centres unmarked) [Compound 19]
%ID/g [3]: 0.042 %ID/g and 0.034 %ID/g and 0.025 %ID/g | tumor uptake and retention ([4]; microPET, 1 hour post-injection, FIG. 5): good tumor uptake and retention | wash-out rate from muscle and other healthy tissues ([4]; mouse, in vivo): fast wash-out rate

Compound: c(RGDyV)
tumor uptake ([5]; 125I-labeled peptide): receptor-specific tumor uptake | excretion [5]: unfavorable hepatobiliary excretion | tumor washout [5]: rapid tumor washout

Compound: CC([18F])C(=O)NC[C@H]1OC(C(=O)NCCCC[C@@H]2NC(=O)[C@@H](Cc3ccccc3)NC(=O)[C@H](CC(=O)O)NC(=O)CNC(=O)[C@H](CCCNC(=N)N)NC2=O)[C@@H](O)C(O)C1O (some centres unmarked) [[^18F]Galacto-RGD]
tumor standard uptake values ([6]; background statement): modest tumor standard uptake values | tracer accumulation in organs ([6]; both preclinical models and human studies): prominent tracer accumulation in the liver, kidneys, spleen, and intestines | tracer localization [7]: did not localize on tumor cells | tumor uptake [8]: integrin αvβ3-specific tumor uptake | integrin binding affinity [9]: relatively low integrin binding affinity

potency (competition of binding) [2, 11]: very similar in potency
Compound: N=C(N)NCCC[C@@H]1NC(=O)[C@H](CCCCN)NC(=O)[C@@H](Cc2ccccc2)NC(=O)[C@H](CC(=O)O)NC(=O)[C@H](CO)NC1=O [Compound 1] (cyclo(D[dF]KRS))

Compound: C[C@@H]1NC(=O)[C@H](CCCNC(=N)N)NC(=O)[C@H](CCCCNC(=O)CCN(CCC(=O)NCCCC[C@@H]2NC(=O)[C@@H](Cc3ccccc3)NC(=O)[C@H](CC(=O)O)NC(=O)[C@H](C)NC(=O)[C@H](CCCNC(=N)N)NC2=O)C(=O)CCOCCOCCOCCOCCNC(=O)n2cc(CCCF)nn2)NC(=O)[C@@H](Cc2ccccc2)NC(=O)[C@H](CC(=O)O)NC1=O [Compound 23]
potency (competition of binding) [2, 10]: very similar in potency
